These molecules were tested against T1, EBP (Homo sapiens, UniProt Q15125) (assay: EBP Functional Assay (EBP immunoaffinity LC-MS assay)). Conditions: EBP enzyme from HEK293T cells; 30 min with inhibitor, then zymosterol-d5 at 37° C. for 4 h; percent conversion by LC-APCI MRM MS.
T1 construct: HEK293T cells were utilized as the source of EBP enzyme; endogenous in cells; host or cells: HEK293T
Format: biochemical
Procedure: The EBP immunoaffinity (IA) LC-MS assay measures the potency of small molecule inhibitors of EBP by quantifying their concentration-dependent changes in the enzyme's substrate and product using liquid chromatography atmospheric pressure chemical ionization multiple reaction monitoring mass spectrometry (LC-APCI MRM MS). HEK293T cells were utilized as the source of EBP enzyme. The enzyme was incubated with the small molecule inhibitors at variable concentrations for 30 min. Deuterated form of EBP substrate, zymosterol-d5 (Avanti Polar Lipids, Cat #700068P-1 mg), was then added and the plate was incubated at 37° C. for 4 h. Finally, the sterol isomers were extracted and injected to LC-APCI MRM MS. MRM transition used for the quantification for both zymosterol and […] (substrate and product of EBP enzymatic reaction, respectively) is 372.3-203.2, CE 30 and DP 80 in positive ion mode. Percent conversion of the zymosterol-d5 to dehydrolathosterol-d5 was used to derive IC50 curves. Tasin-1 (1′-[(4-Methoxyphenyl)sulfonyl]-4-methyl-1,4′-bipiperidine, CAS 792927-06-1) was used as the reference small molecule inhibitor.
Percent conversion versus the compound concentration data were fit to the following 4-parameter logistic model to generate IC50 curves: […]

T1 sequence (Q15125 whole entry): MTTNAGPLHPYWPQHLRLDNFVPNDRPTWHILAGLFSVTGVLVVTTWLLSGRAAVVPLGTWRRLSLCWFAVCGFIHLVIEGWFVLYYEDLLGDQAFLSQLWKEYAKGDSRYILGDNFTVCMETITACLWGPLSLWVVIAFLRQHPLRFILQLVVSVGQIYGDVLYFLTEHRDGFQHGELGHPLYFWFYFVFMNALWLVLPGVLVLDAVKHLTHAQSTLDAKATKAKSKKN

| SMILES | IC50 [nM] |
| --- | --- |
| O=S(=O)(c1ccc(OC(F)F)cc1)N1C[C@H]2C[C@H](NC3COC3)C[C@H]2C1 [Example 14, (3aR,5s,6aS)-2-((4-(Difluoromethoxy)phenyl)sulfonyl)-N-(oxetan-3-yl)octahydrocyclopenta[c]pyrrol-5-amine] | > 500 |
| O=S(=O)(c1ccc(OC(F)F)cc1)N1C[C@H]2C[C@H](NC3CCOC3)C[C@H]2C1 (stereo partly drawn) [Example 15, (3aR,5s,6aS)-2-((4-(Difluoromethoxy)phenyl)sulfonyl)-N-(tetrahydrofuran-3-yl)octahydrocyclopenta[c]pyrrol-5-amine] | 100 to 500 |
| CN(CC1CCOCC1)[C@H]1C[C@@H]2CN(S(=O)(=O)c3ccc(OC(F)F)cc3)C[C@@H]2C1 [Example 17, (3aR,5s,6aS)-2-((4-(Difluoromethoxy)phenyl)sulfonyl)-N-methyl-N-((tetrahydro-2H-pyran-4-yl)methyl)octahydrocyclopenta[c]pyrrol-5-amine] | 100 to 500 |
| O=S(=O)(c1ccc(OC(F)F)cc1)N1C[C@H]2C[C@H](NC3CC4(COC4)C3)C[C@H]2C1 [Example 19, (3aR,5s,6aS)-2-((4-(Difluoromethoxy)phenyl)sulfonyl)-N-(2-oxaspiro[3.3]heptan-6-yl)octahydrocyclopenta[c]pyrrol-5-amine] | 100 to 500 |
| Cn1nc(C2CC2)cc1S(=O)(=O)N1C[C@H]2C[C@H](NC3CC4(COC4)C3)C[C@H]2C1 [Example 20, (3aR,5s,6aS)-2-((3-Cyclopropyl-1-methyl-1H-pyrazol-5-yl)sulfonyl)-N-(2-oxaspiro[3.3]heptan-6-yl)octahydrocyclopenta[c]pyrrol-5-amine] | 100 to 500 |
| Cc1nc(C(F)(F)F)ccc1S(=O)(=O)N1C[C@H]2C[C@H](NC3CC4(COC4)C3)C[C@H]2C1 [Example 30, (3aR,5s,6aS)-2-((2-Methyl-6-(trifluoromethyl)pyridin-3-yl)sulfonyl)-N-(2-oxaspiro[3.3]heptan-6-yl)octahydrocyclopenta[c]pyrrol-5-amine] | 100 to 500 |
| Cc1cc(S(=O)(=O)N2C[C@H]3CN(C4CCOCC4)C[C@H]3C2)n(C)n1 [Example 31, (3aR,6aS)-2-((1,3-dimethyl-1H-pyrazol-5-yl)sulfonyl)-5-(tetrahydro-2H-pyran-4-yl)octahydropyrrolo[3,4-c]pyrrole] | 100 to 500 |
| N#Cc1cc(F)cc(S(=O)(=O)N2C[C@H]3CN(C4CCOCC4)C[C@H]3C2)c1 [Example 33, 3-Fluoro-5-(((3aR,6aS)-5-(tetrahydro-2H-pyran-4-yl)hexahydropyrrolo[3,4-c]pyrrol-2(1H)-yl)sulfonyl)benzonitrile] | > 500 |
| O=S(=O)(c1cc(F)cc(F)c1)N1C[C@H]2CN(C3CCOCC3)C[C@H]2C1 [Example 39, (3aR,6aS)-2-((3,5-Difluorophenyl)sulfonyl)-5-(tetrahydro-2H-pyran-4-yl)octahydropyrrolo[3,4-c]pyrrole] | 100 to 500 |
| Cc1nc(C(F)(F)F)ccc1S(=O)(=O)N1C[C@H]2CN(C3CCOCC3)C[C@@H]2C1 [Example 45, (3aR,6aR)-2-((2-Methyl-6-(trifluoromethyl)pyridin-3-yl)sulfonyl)-5-(tetrahydro-2H-pyran-4-yl)octahydropyrrolo[3,4-c]pyrrole] | 100 to 500 |
| Cn1nc(C(F)(F)F)cc1S(=O)(=O)N1C[C@H]2CN(C3CCOCC3)C[C@@H]2C1 [Example 46, (3aR,6aR)-2-((1-Methyl-3-(trifluoromethyl)-1H-pyrazol-5-yl)sulfonyl)-5-(tetrahydro-2H-pyran-4-yl)octahydropyrrolo[3,4-c]pyrrole] | 100 to 500 |
| Cc1cc(S(=O)(=O)N2C[C@H]3CN(C4CCOCC4)C[C@H]3C2)n(C)n1 [Example 49, Rac-(3aR,6aS)-2-((1,3-dimethyl-1H-pyrazol-5-yl)sulfonyl)-5-(tetrahydro-2H-pyran-4-yl)octahydropyrrolo[3,4-c]pyrrole] | > 500 |
| Cc1nc(C(F)(F)F)nc(C)c1S(=O)(=O)N1C[C@H]2CN(C3CC4(COC4)C3)C[C@@H]2C1 [Example 61, (3aR,6aR)-2-((4,6-dimethyl-2-(trifluoromethyl)pyrimidin-5-yl)sulfonyl)-5-(2-oxaspiro[3.3]heptan-6-yl)octahydropyrrolo[3,4-c]pyrrole] | < 100 |
| Cc1nc(C(F)(F)F)nc(C)c1S(=O)(=O)N1C[C@H]2CN(CC3CCOCC3)C[C@@H]2C1 [Example 62, (3aR,6aR)-2-((4,6-dimethyl-2-(trifluoromethyl)pyrimidin-5-yl)sulfonyl)-5-((tetrahydro-2H-pyran-4-yl)methyl)octahydropyrrolo[3,4-c]pyrrole] | < 100 |

The remaining lines, values ahead:

| IC50 [nM] | SMILES |
| --- | --- |
| < 100 | O=S(=O)(c1ccc(OC(F)F)cc1)N1C[C@H]2C[C@H](NC3CCOCC3)C[C@H]2C1 [Example 16, (3aR,5s,6aS)-2-((4-(Difluoromethoxy)phenyl)sulfonyl)-N-(tetrahydro-2H-pyran-4-yl)octahydrocyclopenta[c]pyrrol-5-amine] |
| < 100 | Cn1nc(C2CC2)cc1S(=O)(=O)N1C[C@H]2C[C@H](NCC3(C)COC3)C[C@H]2C1 [Example 21, (3aR,5s,6aS)-2-((3-Cyclopropyl-1-methyl-1H-pyrazol-5-yl)sulfonyl)-N-((3-methyloxetan-3-yl)methyl)octahydrocyclopenta[c]pyrrol-5-amine] |
| < 100 | Cc1nc(C(F)(F)F)ccc1S(=O)(=O)N1C[C@H]2C[C@H](N(C)CC3CCOCC3)C[C@H]2C1 [Example 23, (3aR,5s,6aS)-N-Methyl-2-((2-methyl-6-(trifluoromethyl)pyridin-3-yl)sulfonyl)-N-((tetrahydro-2H-pyran-4-yl)methyl)octahydrocyclopenta[c]pyrrol-5-amine] |
| < 100 | Cc1nc(C(F)(F)F)ccc1S(=O)(=O)N1C[C@H]2C[C@H](NCC3CCOCC3)C[C@H]2C1 [Example 27, (3aR,5s,6aS)-2-((2-Methyl-6-(trifluoromethyl)pyridin-3-yl)sulfonyl)-N-((tetrahydro-2H-pyran-4-yl)methyl)octahydrocyclopenta[c]pyrrol-5-amine] |
| < 100 | Cc1nc(C(F)(F)F)ccc1S(=O)(=O)N1C[C@H]2C[C@H](NC3CCOCC3)C[C@H]2C1 [Example 28, (3aR,5s,6aS)-2-((2-Methyl-6-(trifluoromethyl)pyridin-3-yl)sulfonyl)-N-(tetrahydro-2H-pyran-4-yl)octahydrocyclopenta[c]pyrrol-5-amine] |
| < 100 | Cc1nc(C(F)(F)F)ccc1S(=O)(=O)N1C[C@H]2C[C@H](NCC3(C)COC3)C[C@H]2C1 [Example 29, (3aR,5s,6aS)-2-((2-Methyl-6-(trifluoromethyl)pyridin-3-yl)sulfonyl)-N-((3-methyloxetan-3-yl)methyl)octahydrocyclopenta[c]pyrrol-5-amine] |
| < 100 | Cc1cc(C)c(S(=O)(=O)N2CC3CN(C4CCOCC4)CC3C2)c(C)c1 (stereo not drawn) [Example 32, 2-(Mesitylsulfonyl)-5-(tetrahydro-2H-pyran-4-yl)octahydropyrrolo[3,4-c]pyrrole] |
| < 100 | COc1ccc(S(=O)(=O)N2C[C@H]3CN(C4CCOCC4)C[C@H]3C2)c(C)n1 [Example 34, (3aR,6aS)-2-((6-Methoxy-2-methylpyridin-3-yl)sulfonyl)-5-(tetrahydro-2H-pyran-4-yl)octahydropyrrolo[3,4-c]pyrrole] |
| < 100 | Cc1nc(C(F)(F)F)ccc1S(=O)(=O)N1C[C@H]2CN(C3CCOCC3)C[C@H]2C1 [Example 35, (3aR,6aS)-2-((2-Methyl-6-(trifluoromethyl)pyridin-3-yl)sulfonyl)-5-(tetrahydro-2H-pyran-4-yl)octahydropyrrolo[3,4-c]pyrrole] |
| < 100 | Cc1nc(C(F)(F)F)nc(C)c1S(=O)(=O)N1C[C@H]2CN(C3CCOCC3)C[C@@H]2C1 [Example 60, (3aR,6aR)-2-((4,6-dimethyl-2-(trifluoromethyl)pyrimidin-5-yl)sulfonyl)-5-(tetrahydro-2H-pyran-4-yl)octahydropyrrolo[3,4-c]pyrrole] |
